From patent US7604990B2, “Methods of regulating differentiation in stem cells” (ES Cell International Pte Ltd., priority 2002, dated 2009)
“Also recorded” adds a separate entry of the source.

Assays:
Format in all cases: cell-based, human
hES cells [1] = assay: ELISA-based GCTM-2 quantification in hES cells (Example 2)
Experimental: (§1) hES-3 cells were cultured as previously described^1. The serum-free culture medium consisted of DMEM (without sodium pyruvate, glucose 4500 mg/l, Invitrogen, Mount Waverley, VIC, Australia) supplemented with insulin/transferrin/selenium 1%, β-mercaptoethanol 0.1 mM, NEAA 1%, glutamine 2 mM, Hepes 25 mM, penicillin 50 U/ml and streptomycin […] (all from Invitrogen). Media was changed every 2 days and cells were passaged every week S1P and dihydro-S1P were obtained from Biomol (Plymouth Meeting, Pa., USA). LPA was obtained from Sigma (Castle Hill, NSW, Australia). Extemporaneous dilutions of all lipids were made in water containing 0.1% fatty acid-free bovine serum albumin (BSA) (Sigma). S1P and dihydro-S1P were used at 10 mM. Human PDGF-AB, PDGF-AA, PDGF-BB were from Prepro Tech Inc. (Rocky Hill, N.J., USA) and were used at 20 ng/ml.
Cells were fixed in 100% ethanol and immunostained with GCTM-2 followed by alkaline phosphatase-coupled secondary antibodies (Dako). Alkaline phosphatase activity was detected by adding a solution of 4-nitrophenyl phosphate (Roche), and the concentration of the reaction product was determined by reading the optical density (OD) at 405 nm. In order to validate the technique as an accurate indicator of the proportion of GCTM-2 positive cells, standard curves were carried out with the embryonal carcinoma cell line GCT27C4, known to express GCTM-2^20.

[2] = tested on: ERKs (Erk1 and Erk2) in hES cells; assay: ERK phosphorylation Western blot in hES cells (Example 1)
Experimental: RT-PCR for LPL receptors (A, B), PDGFR-[…] (alpha) and PDGFR-[…] (beta) (C), SPK-1 and SPK-2 (D), with (+) or without (−) RT. Immunostaining of hES cells with Hoechst 33342 (E, H), PDGFR-[…] (F) or PDGFR-[…] (I) and GCTM-2 (G, J) antibodies. S1P, LPA and PDGF stimulate ERKs phosphorylation in hES cells. (K) Western blots experiment were performed using protein lysate from hES cells. Cells were pre-treated or not with U0126 (30 μM, 1 hr) and incubated for 5 min in the absence (C, control) or presence of S1P (S, 10 μM), LPA (L, […]) or PDGF (P, 20 ng/ml). The phosphorylation of Erk1 and Erk2 (P-Erk1 and P-Erk2) was assessed by immunoblotting with a polyclonal anti-active MAP kinase as described in Materials and Methods. After a stripping procedure, the same blots were reprobed with a monoclonal anti-MAP kinase, allowed the detection of Erk1 and Erk2.
hES-3 cells plated without MEF for 24 hrs were depleted of serum for a further 18 hrs. Cells pre-treated or not with U0126 (Sigma, 30 μM, 1 hr), were incubated in the presence of the different agents for 5 min and were lysed by removal of the supernatants and addition of a reducing loading buffer containing 1 mM sodium orthovanadate (Sigma). Protein lysates (approx. 80 μg) were separated by SDS-polyacrylamide gel electrophoresis (10% polyacrylamide, w/v), transferred to nitrocellulose (Hybond-nitrocellulose, Amersham) and immunoblotting was carried out using rabbit polyclonal anti-active mitogen-activated protein (MAPK) antibodies raised against a dually phosphorylated MAPK peptide (Promega, Madison, Wis., USA). Peroxidase-coupled secondary antibody (Dako) was detected by exposure of autoradiographic films in the presence of a chemiluminescent detection reagent (ECL, Amersham). Stripping of antibodies was achieved and membranes were then reprobed with rabbit polyclonal anti-ERK1/2 antibodies (Promega), and then with peroxidase-coupled secondary antibodies (Dako). Membranes probed with either rabbit polyclonal anti-active p38 (Promega) or rabbit polyclonal anti-active JNK (Promega) antibodies were also performed, using the same procedure as described above.

[3] = tested on: ERKs (Erk1 and Erk2) in hES cells; assay: ERK phosphorylation Western blot in hES cells (Example 5); settings: U0126 30 μM, 1 hr pre-treatment
Experimental: Western blots experiments were performed using protein lysate from hES cells. (A) Cells were pre-treated or not with U0126 (30 μM, 1 hr) and incubated for 5 min in the absence (C, control) or presence of S1P (10 μM). (B) Cells were incubated for different time periods in the absence or presence of S1P (10 μM). (C) Cells were incubated for 5 min with various concentrations of S1P. The phosphorylation of Erk1 and Erk2 (P-Erk1 and P-Erk2) was assessed by immunoblotting with a polyclonal anti-active MAP kinase as described in Materials and Methods. After a stripping procedure, the same blots reprobed with a monoclonal anti-MAP kinase, allowed the detection of Erk1 and Erk2.
For immunoblot analysis, cells were transferred into 24 well plates (8 colonies per well) without MEFs, and 24 hr later, were grown in the absence of serum for 18 hrs.
In some experiments, cells were pre-treated for 1 hr with U0126 (30 μM) or for 18 hrs with PTX (100 μg/ml).
hES3 cells were lysed following removal of the supernatants by addition of a reducing loading buffer (2% SDS, 62.5 mM Tris pH 6.8, 0.1 M DTT, 0.01% bromophenol blue) containing 1 mM sodium orthovanadate. Samples were boiled for 10 min and centrifuged at 13000 g for 15 min, and protein lysates (approx. 80 μg) were separated by SDS-polyacrylamide gel electrophoresis (10% polyacrylamide, w/v). Proteins were transferred to nitrocellulose (Hybond-ECL, Amersham) and immunoblotting was carried out with rabbit polyclonal anti-active mitogen-activated protein (MAPK) antibodies raised against a dually phosphorylated MAPK peptide (Promega, Madison, Wis., USA). Peroxidase-coupled secondary antibody (Dako) was detected by exposure of autoradiographic films in the presence of a chemiluminescent detection reagent (ECL, Amersham). Stripping of antibodies was achieved by incubating the membrane during 30 min at 50° C. in a buffer containing 100 mM mercaptoethanol, 2% SDS, 62.5 mM Tris-HCl pH 6.7. The membrane was then reprobing with rabbit polyclonal anti-ERK1/2 antibodies (Promega), and then with peroxidase-coupled secondary antibodies (Dako).

hES cells [4] = assay: Spontaneous differentiation of hES colonies on MEF in serum-free medium, morphology (Example 2); settings: 2 weeks serum-free on MEF; S1P 10 μM, PDGF-AB 20 ng/ml, LPA up to 50 μM
Experimental: as §1, with “S1P and dihydro-S1P were used at 10 mM.” left out

hES cells [5] = assay: Spontaneous differentiation of hES colonies on MEF in serum-free medium, morphology (Example 1); settings: 8 days serum-free on MEF; S1P 10 μM, PDGF 20 ng/ml, LPA up to 50 μM
Experimental: (A) hES cells grown with MEF, before the depletion of serum from the medium. (B, C, D, E) hES cells grown without serum after 8 days, in the absence (B) or in the presence of S1P (10 μM) (C), PDGF (20 ng/ml) (D), S1P (10 μM) plus PDGF (20 ng/ml) (E). (F) hES cells grown without serum, in the presence or in the absence (control) of S1P (10 μM), PDGF (20 ng/ml), S1P (10 μM) plus PDGF (20 ng/ml). In A-E, data are representative of at least 3 independent experiments. In F, data expressed as percentages of alkaline phosphatase activity in absence of serum for eight days (% of control), are the means±SEM of at least 2 independent experiments, each run in triplicate.
hES-3 cells were cultured as previously described^1. The serum-free culture medium consisted of DMEM (without sodium pyruvate, glucose 4500 mg/l, Invitrogen, Mount Waverley, VIC, Australia) supplemented with insulin/transferrin/selenium 1%, β-mercaptoethanol 0.1 mM, NEAA 1%, glutamine 2 mM, Hepes 25 mM, penicillin 50 U/ml and streptomycin […] (all from Invitrogen). Medium was changed every 2 days and cells were passaged every week. S1P and dihydro-S1P were obtained from Biomol (Plymouth Meeting, Pa., USA) and were dissolved in methanol. LPA was obtained from Sigma (Castle Hill, NSW, Australia) and was dissolved in ethanol. Extemporaneous dilutions of all lipids were made in water containing 0.1% fatty acid-free bovine serum albumin (BSA) (Sigma). Human PDGF-AB, PDGF-AA, PDGF-BB were from PreproTech Inc. (Rocky Hill, N.J., USA).

hES cells [6] = assay: Direct observation of hES colonies in serum-depleted medium (Example 4)
Experimental: (A) hES cells grown with feeder, before the depletion in serum. (B) hES cells grown without serum after 8 days (B, C) and 12 days (D, E), in absence (B, D) or presence of S1P (C, E, 10 μM).
For direct observation, hES-3 cells were coated into 12-well plates (3 colonies per well), with or without mouse embryonic feeders (MEFs). The day following the plating, cells were incubated with the different agents in serum free medium containing insulin, transferring and selenium. Media was changed the 2nd day and then every 2 days.

With `CCCCCCCCCCCCC/C=C/[C@@H](O)[C@H](CO)N(C)C` [DMS, dimethylsphingosine] the “effect on PDGF and S1P action (GCTM2)” value (hES cells [1]; DMS 3 µM for 7 days) was “inhibited the effect of PDGF and S1P”.

In the case of `N#CC(=C(/N)Sc1ccccc1N)/C(C#N)=C(\N)Sc1ccccc1N` [U0126], the “effect on S1P-, LPA- and PDGF-stimulated phosphorylation of ERKs” value ([2]; U0126 30 μM, 1 hr pre-treatment) is reported as “totally inhibited”, the “effect on S1P-stimulated phosphorylation of ERKs” value [3] is reported as “totally inhibited” and the “effect on PDGF and S1P action on GCTM2 expression” value (hES cells [1]; U0126 10 mM for 7 days) is reported as “totally inhibited”.

In the case of lysophosphatidic acid [LPA], the “phosphorylation of ERKs” value ([2]; hES cells, 5 min, S1P 10 μM, LPA 50 M, PDGF 20 ng/ml) is reported as “stimulated the phosphorylation of ERKs”, the “size or morphology of hES cell colonies (spontaneous differentiation)” value (hES cells [4]) is reported as “no obvious effect on size or morphology” and the “colony growth/morphology (spontaneous differentiation)” value (hES cells [5]) is reported as “did not have an obvious effect on growth of the colonies”. The “growth/differentiation of hES colonies on MEFs” value (hES cells [6]; S1P 10 μM 8 days, LPA up to 50 μM 12 days) was “did not seem to affect the growth of the colonies; also recorded: inactive” and the “effect on cell differentiation, hES cells grown without MEFs” value (hES cells [6]; without MEFs, n=3) was “lack of effect”.
